Experiments:
[1] = test system: 8305C (Thyroid Gland Carcinoma); assay: Bliss excess, mean over the matrix (fraction); higher = more synergy
Procedure, shortened: (§1)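 Bliss excess equals the observed combination effect minus the expected value EA + EB − EA·EB, where EA and EB are the effects of each agent alone. Combination Emax is the second-highest inhibition within the matrix. Inhibition was scaled from CellTiter-Glo 2.0 luminescence, with 0 set by vehicle wells and 1 by blank wells, after 72 hours of two-drug dosing of cells plated in 1536-well plates.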

[2] = test system: HDLM-2 (Hodgkin's Lymphoma); assay: as above
Procedure, shortened: as §1

HMV-II (Melanoma) [3] = assay: as above
Procedure, shortened: as §1

[4] = test system: HO-1-u-1 (Oral Cavity Carcinoma); assay: as above
Procedure, shortened: as §1

[5] = test system: Hs-633T (Other Solid Carcinomas); assay: as above
Procedure, shortened: as §1

[6] = test system: MDA-MB-468 (Breast Carcinoma); assay: as above
Procedure, shortened: as §1

NCI-H2461 (Mesothelioma) = assay: as above
Procedure, shortened: as §1

NCI-H2795 (Mesothelioma) = assay: as above
Procedure, shortened: as §1

[7] = test system: SU-DHL-6 (B-Cell Non-Hodgkin's Lymphoma); assay: as above
Procedure, shortened: as §1

[8] = test system: SW1116 (Colorectal Carcinoma); assay: as above
Procedure, shortened: as §1

[9] = test system: HARA (Squamous Cell Lung Carcinoma); assay: combination Emax (second highest fraction inhibited in the dose matrix, 72 h); higher = more inhibition; extreme values may be limits of the assay
Procedure, shortened: as §1

[10] = test system: HDLM-2 (Hodgkin's Lymphoma); assay: as above
Procedure, shortened: as §1

HMV-II (Melanoma) [11] = assay: as above
Procedure, shortened: as §1

[12] = test system: LU-139 (Small Cell Lung Carcinoma); assay: as above
Procedure, shortened: as §1

Mewo (Melanoma) = assay: as above
Procedure, shortened: as §1

[13] = test system: NCI-H69 (Small Cell Lung Carcinoma); assay: as above
Procedure, shortened: as §1

[14] = test system: RPMI-6666 (Non-Cancerous); assay: as above
Procedure, shortened: as §1

[15] = test system: RT-112 (Bladder Carcinoma); assay: as above
Procedure, shortened: as §1

SH-4 (Melanoma) = assay: as above
Procedure, shortened: as §1

[16] = test system: SW1116 (Colorectal Carcinoma); assay: as above
Procedure, shortened: as §1

| SMILES | Bliss excess [1] | Bliss excess [2] | Bliss excess (HMV-II (Melanoma) [3]) | Bliss excess [4] | Bliss excess [5] | Bliss excess [6] | Bliss excess (NCI-H2461 (Mesothelioma)) | Bliss excess (NCI-H2795 (Mesothelioma)) | Bliss excess [7] | Bliss excess [8] | combination Emax [9] | combination Emax [10] | combination Emax (HMV-II (Melanoma) [11]) | combination Emax [12] | combination Emax (Mewo (Melanoma)) | combination Emax [13] | combination Emax [14] | combination Emax [15] | combination Emax (SH-4 (Melanoma)) | combination Emax [16] |
| --- | --- | --- | --- | --- | --- | --- | --- | --- | --- | --- | --- | --- | --- | --- | --- | --- | --- | --- | --- | --- |
| N#Cc1cnc(Nc2cc(NC[C@H]3CNCCO3)c(C(F)(F)F)cn2)cn1 [SRA737] + O=c1[nH]cc(F)c(=O)[nH]1 [5-Fluorouracil] (first compound max 10 µM, 7x7, partner max 20 µM) | -0.0326 | 0.0758 | -0.0542 | -0.0774 | -0.0246 | -0.0199 | -0.0256 | 0.0744 | 0.0498 | -0.033 | 0.89 | 0.645 | 0.303 | 0.356 | 0.38 | 0.152 | 0.901 | 0.712 | 0.383 | 0.193 |
| C=CCn1c(=O)c2cnc(Nc3ccc(N4CCN(C)CC4)cc3)nc2n1-c1cccc(C(C)(C)O)n1 [AZD1775] + Nc1ccn([C@@H]2O[C@H](CO)[C@@H](O)C2(F)F)c(=O)n1 [Gemcitabine] (first compound max 1 µM, partner max 0.3 µM) | -0.0524 | -0.0627 | -0.0355 | -0.0446 | 0.0094 | 0.0073 | -0.0446 | -0.0549 | 0.0556 | -0.0077 | 0.912 | 0.763 | 0.632 | 0.795 | 0.583 | 0.611 | 0.917 | 0.956 | 0.577 | 0.405 |
| C[C@@H](Nc1cc(F)cc(F)c1)c1cc(C(=O)N(C)C)cc2c(=O)cc(N3CCOCC3)oc12 [AZD8186] + CC(=O)c1c(C)c2cnc(Nc3ccc(N4CCNCC4)cn3)nc2n(C2CCCC2)c1=O [Palbociclib] (first compound max 10 µM, 7x7, partner max 10 µM) | 0.0133 | 0.0121 | 0.0265 | 0.0138 | 0.05 | -0.022 | -0.0113 | 0.0582 | 0.0418 | -0.0352 | 0.589 | 0.333 | 0.469 | 0.115 | 0.449 | 0.558 | 0.691 | 0.352 | 0.233 | 0.175 |
| Cc1c2c(nn1C)CSCc1cc(n(C)n1)CSc1cc(c3ccccc3c1)OCCCc1c(C(=O)O)n(C)c3c-2c(Cl)ccc13 [AZD5991] + CC(=O)O[C@H]1C(=O)[C@@]2(C)[C@H]([C@H](OC(=O)c3ccccc3)[C@]3(O)C[C@H](OC(=O)[C@H](O)[C@@H](NC(=O)c4ccccc4)c4ccccc4)C(C)=C1C3(C)C)[C@]1(OC(C)=O)CO[C@@H]1C[C@@H]2O [Paclitaxel] (first compound max 1 µM, 7x7, partner max 3 µM) | -0.0118 | 0.0128 | 0.0547 | 0.214 | 0.005 | -0.051 | -0.0417 | 0.044 | 0.0125 | -0.0379 | 0.982 | 0.996 | 0.598 | 0.649 | 0.692 | 0.89 | 0.979 | 1 | 0.472 | 0.438 |
| C[C@@H](Oc1cc(-c2cnn(C3CCNCC3)c2)cnc1N)c1c(Cl)ccc(F)c1Cl [Crizotinib] + CC1=C(C(=CC=C1)Cl)NC(=O)C2=CN=C(S2)NC3=CC(=NC(=N3)C)N4CCN(CC4)CCO [Dasatinib] (first compound max 10 µM, 7x7, partner max 2 µM) | 0.0122 | -0.0228 | -0.104 | -0.0488 | 0.0646 | 0.0256 | -0.0186 | 0.0277 | -0.0146 | 0.0159 | 0.757 | 0.226 | 0.768 | 0.688 | 0.481 | 0.771 | 0.686 | 0.974 | 0.556 | 0.619 |
| CC1(C)CCC(CN2CCN(c3ccc(C(=O)NS(=O)(=O)c4ccc(NCC5CCOCC5)c([N+](=O)[O-])c4)c(Oc4cnc5[nH]ccc5c4)c3)CC2)=C(c2ccc(Cl)cc2)C1 [Venetoclax] + CS(=O)(=O)CCNCc1ccc(-c2ccc3ncnc(Nc4ccc(OCc5cccc(F)c5)c(Cl)c4)c3c2)o1 [Lapatinib] (first compound max 1 µM, 7x7, partner max 10 µM) | -0.0112 | 0.0315 | -0.045 | 0.0094 | -0.0041 | -0.141 | -0.04 | -0.058 | 0.0481 | -0.0129 | 0.584 | 0.629 | 0.519 | 0.19 | 0.176 | 0.724 | 0.55 | 0.146 | 0.0973 | 0.288 |
| CN(CCO)CC[C@H](CSc1ccccc1)Nc1ccc(S(=O)(=O)NC(=O)c2ccc(N3CCC([C@@H](O)c4ccccc4-c4ccc(Cl)cc4)CC3)cc2)cc1S(=O)(=O)C(F)(F)F [AZD4320] + C[C@@H](Nc1cc(F)cc(F)c1)c1cc(C(=O)N(C)C)cc2c(=O)cc(N3CCOCC3)oc12 [AZD8186] (first compound max 1 µM, 7x7, partner max 3 µM) | 0.0676 | 0.0434 | -0.0397 | -0.0242 | 0.0082 | 0.0195 | -0.0052 | 0.0426 | 0.0068 | 0.0353 | 0.361 | 0.847 | 0.383 | 0.943 | 0.332 | 0.885 | 0.996 | 0.435 | 0.308 | 0.275 |
| CN(CCO)CC[C@H](CSc1ccccc1)Nc1ccc(S(=O)(=O)NC(=O)c2ccc(N3CCC([C@@H](O)c4ccccc4-c4ccc(Cl)cc4)CC3)cc2)cc1S(=O)(=O)C(F)(F)F [AZD4320] + CC(=O)O[C@H]1C(=O)[C@@]2(C)[C@H]([C@H](OC(=O)c3ccccc3)[C@]3(O)C[C@H](OC(=O)[C@H](O)[C@@H](NC(=O)c4ccccc4)c4ccccc4)C(C)=C1C3(C)C)[C@]1(OC(C)=O)CO[C@@H]1C[C@@H]2O [Paclitaxel] (first compound max 1 µM, 7x7, partner max 3 µM) | 0.0435 | 0.0159 | 0.101 | 0.254 | 0.0124 | 0.0898 | 0.0571 | 0.0621 | 0.0083 | -0.101 | 0.999 | 1 | 0.853 | 0.964 | 0.78 | 0.991 | 1 | 0.991 | 0.531 | 0.586 |
| CN(CCO)CC[C@H](CSc1ccccc1)Nc1ccc(S(=O)(=O)NC(=O)c2ccc(N3CCC([C@@H](O)c4ccccc4-c4ccc(Cl)cc4)CC3)cc2)cc1S(=O)(=O)C(F)(F)F [AZD4320] + CS(=O)(=O)CCNCc1ccc(-c2ccc3ncnc(Nc4ccc(OCc5cccc(F)c5)c(Cl)c4)c3c2)o1 [Lapatinib] (first compound max 1 µM, 7x7, partner max 10 µM) | -0.0526 | -0.0018 | -0.0663 | 0.0591 | -0.0023 | -0.0457 | 0.0115 | 0.0148 | 0.0749 | 0.0117 | 0.906 | 0.985 | 0.773 | 0.985 | 0.492 | 0.997 | 0.951 | 0.351 | 0.239 | 0.823 |
| O=C(c1cc(Cc2n[nH]c(=O)c3ccccc23)ccc1F)N1CCN(C(=O)C2CC2)CC1 [Olaparib] + CC1(C)CCC(CN2CCN(c3ccc(C(=O)NS(=O)(=O)c4ccc(NCC5CCOCC5)c([N+](=O)[O-])c4)c(Oc4cnc5[nH]ccc5c4)c3)CC2)=C(c2ccc(Cl)cc2)C1 [Venetoclax] (first compound max 10 µM, 7x7, partner max 1 µM) | -0.0213 | 0.0921 | -0.0468 | -0.0275 | -0.0018 | -0.0372 | -0.0373 | -0.0329 | 0.104 | -0.0429 | 0.137 | 0.322 | 0.129 | 0.655 | 0.0337 | 0.614 | 0.72 | 0.0956 | 0.148 | 0.097 |
| C[C@@H]1COCCN1c1cc(C2([S@](C)(=N)=O)CC2)nc(-c2ccnc3[nH]ccc23)n1 [AZD6738] + Nc1ccn([C@@H]2O[C@H](CO)[C@@H](O)C2(F)F)c(=O)n1 [Gemcitabine] (first compound max 10 µM, 7x7, partner max 0.3 µM) | 0.0252 | 0.0754 | -0.0112 | 0.061 | 0.0444 | 0.0233 | -0.0436 | -0.0533 | 0.118 | 0.0575 | 0.927 | 0.77 | 0.724 | 0.841 | 0.768 | 0.851 | 0.936 | 0.936 | 0.623 | 0.553 |
| N#Cc1cnc(Nc2cc(NC[C@H]3CNCCO3)c(C(F)(F)F)cn2)cn1 [SRA737] + CCc1c2c(nc3ccc(O)cc13)-c1cc3c(c(=O)n1C2)COC(=O)[C@]3(O)CC [SN-38] (first compound max 10 µM, 7x7, partner max 0.3 µM) | -0.0419 | -0.0382 | -0.0523 | 0.106 | -0.0402 | -0.0136 | -0.0351 | -0.0977 | 0.0295 | 0.0312 | 0.898 | 0.724 | 0.546 | 0.747 | 0.679 | 0.82 | 0.915 | 0.95 | 0.518 | 0.616 |
| Cc1c2c(nn1C)CSCc1cc(n(C)n1)CSc1cc(c3ccccc3c1)OCCCc1c(C(=O)O)n(C)c3c-2c(Cl)ccc13 [AZD5991] + Nc1ccn([C@@H]2O[C@H](CO)[C@@H](O)C2(F)F)c(=O)n1 [Gemcitabine] (first compound max 1 µM, 7x7, partner max 0.3 µM) | -0.121 | 0.0014 | 0.0013 | 0.0217 | -0.0611 | -0.0097 | -0.0432 | -0.0687 | 0.0242 | -0.0213 | 0.81 | 0.967 | 0.595 | 0.855 | 0.465 | 0.457 | 0.947 | 0.834 | 0.495 | 0.203 |

From the supplement of paper PMC11061612
